Laboratory results reported in patent US8017612B2, “Piperazine compound and use thereof as a HCV polymerase inhibitor” (priority 2006, dated 2011).

Experiments:
[1] = target: T1, HCV polymerase (NS5B) type 1a (Hepatitis C virus genotype 1a, UniProt P26664); test: Assay of enzyme (HCV polymerase) inhibitory activity, type 1a enzyme; format: biochemical, HCV type 1a (cloned from the blood of patients)
T1 construct: made in house; host or cells: Escherichia coli (by the 'similar method' of the 1b enzyme)
Method in brief: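 IC50 values derive from radioactivity of newly synthesized RNA with versus without test compound. The enzyme was C-terminally truncated type 1a NS5B, 1.5 μg/ml, run 60 min at 25° C with 3H-UTP-labelled nucleotides.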

[2] = target: T2, HCV polymerase (NS5B) type 1b (Hepatitis C virus genotype 1b, UniProt P26663); test: Assay of enzyme (HCV polymerase) inhibitory activity, type 1b enzyme; format: biochemical, HCV BK strain (type 1b)
T2 construct: a region encoding NS5B (J Virol 1991 March, 65(3), 1105-13, 544 amino acids after deletion of 47 amino acids on the C-terminal); 6xHis (C); made in house; host or cells: Escherichia coli
Method in brief: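 Polymerase activity was followed as radiolabelled UTP incorporation by E. coli-expressed, His-tagged NS5B of HCV type 1b lacking its last 47 residues. Conditions: 2 μM UTP, 50 μM other NTPs, Mg2+ buffer at pH 7.5, 25 °C for 60 min. Inhibition relative to compound-free reactions gave IC50.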

[3] = HCV polymerase inhibitory activity IC50, 1a, type 1a enzyme
[4] = HCV polymerase inhibitory activity IC50, 1b, type 1b enzyme
[5] = HCV polymerase inhibitory activity (IC50), 1a, type 1a enzyme 1.5 μg/ml, 25° C., 60 min
[6] = HCV polymerase inhibitory activity (IC50), 1b, type 1b enzyme 0.5 μg/ml, 25° C., 60 min

In the case of `O=C(NCc1ccc(OC(F)(F)F)cc1)[C@H]1CN(c2cnc3cnccc3n2)CCN1S(=O)(=O)c1ccc([N+](=O)[O-])cc1` [Example 754, (R)-1-(4-nitro-benzenesulfonyl)-4-pyrido[3,4-b]pyrazin-2-yl-piperazine-2-carboxylic acid 4-trifluoromethoxy-benzylamide], the IC50 [1, 3] is reported as < 100 nM and the IC50 [2, 4] is reported as < 100 nM.
For `O=C(NCc1ccc(-c2cccs2)s1)[C@H]1CN(c2cnc3cncnc3n2)CCN1S(=O)(=O)c1ccc(OC(F)(F)F)cc1` [Example 659, (R)-4-pteridin-7-yl-1-(4-trifluoromethoxy-benzenesulfonyl)-piperazine-2-carboxylic acid ([2,2′]bithiophenyl-5-ylmethyl)-amide], the IC50 [1, 5] was < 100 nM and the IC50 [2, 6] was < 100 nM.
Work on `CCCc1ccc(CNC(=O)[C@H]2CN(c3nc(C)c(C(=O)O)cc3F)CCN2S(=O)(=O)c2ccc(OC(F)(F)F)cc2)cc1` [Example 823, 5-fluoro-2-methyl-6-[(R)-3-(4-propyl-benzylcarbamoyl)-4-(4-trifluoromethoxy-benzenesulfonyl)-piperazin-1-yl]-nicotinic acid] yielded an IC50 [1, 3] of 100 to 1000 nM and an IC50 [2, 4] of 100 to 1000 nM.
For `CC(C)c1ccc(S(=O)(=O)N2CCN(c3nc4ccccc4s3)CC2C(=O)NCc2ccc(C(F)(F)F)cc2)cc1` (centres unmarked) [Example 134, 4-benzothiazol-2-yl-1-(4-isopropyl-benzenesulfonyl)-piperazine-2-carboxylic acid 4-trifluoromethyl-benzylamide], the IC50 [1, 5] was > 1000 nM and the IC50 [2, 6] was > 1000 nM.
For `CCC(F)(F)c1ccc(CNC(=O)[C@H]2CN(C(=O)C3CC3)CCN2S(=O)(=O)c2ccc(OC(F)(F)F)cc2)cc1` [Example 610, (R)-4-cyclopropanecarbonyl-1-(4-trifluoromethoxy-benzenesulfonyl)-piperazine-2-carboxylic acid 4-(1,1-difluoro-propyl)-benzylamide], the IC50 [1, 5] was 100 to 1000 nM and the IC50 [2, 6] was 100 to 1000 nM.
With `CC(=O)N1CCN(S(=O)(=O)c2ccc(OC(C)C)cc2)C(C(=O)NCc2ccc(C(F)(F)F)cc2)C1` (centres unmarked) [Example 83, 4-acetyl-1-(4-isopropoxy-benzenesulfonyl)-piperazine-2-carboxylic acid 4-trifluoromethyl-benzylamide] the IC50 [1, 5] was > 1000 nM and the IC50 [2, 6] was > 1000 nM.
With `O=C(O)Cn1ncc2sc(N3CCN(S(=O)(=O)c4ccc(OC(F)(F)F)cc4)[C@@H](C(=O)NCc4ccc(OC(F)(F)F)cc4)C3)nc2c1=O` [Example 1106, {4-oxo-2-[(R)-4-(4-trifluoromethoxy-benzenesulfonyl)-3-(4-trifluoromethoxy-benzylcarbamoyl)-piperazin-1-yl]-4H-thiazolo[4,5-d]pyridazin-5-yl}-acetic acid] the IC50 [1, 3] was < 100 nM and the IC50 [2, 4] was < 100 nM.
In the case of `CC(C)c1ccc(CNC(=O)[C@H]2CN(C(=O)NCc3ccccc3)CCN2S(=O)(=O)c2ccc(C(F)(F)F)cc2)cc1` [Example 243, (R)-4-(4-trifluoromethyl-benzenesulfonyl)-piperazine-1,3-dicarboxylic acid 1-benzylamide 3-(4-isopropyl-benzylamide)], the IC50 [1, 5] is reported as > 1000 nM and the IC50 [2, 6] is reported as > 1000 nM.
With `CCCc1ccc(CNC(=O)[C@H]2CN(C(=O)N(C)c3ccncc3)CCN2S(=O)(=O)c2ccc(OC(F)(F)F)cc2)cc1` [Example 463, (R)-4-(4-trifluoromethoxy-benzenesulfonyl)-piperazine-1,3-dicarboxylic acid 1-(methyl-pyridin-4-yl-amide) 3-(4-propyl-benzylamide)] the IC50 [1, 5] was > 1000 nM and the IC50 [2, 6] was > 1000 nM.
In the case of `CC(=O)N1CCN(S(=O)(=O)c2ccc(OC(F)(F)F)c(I)c2)[C@@H](C(=O)NCc2ccc(C(C)C)cc2)C1` [Example 10, (R)-4-acetyl-1-(3-iodo-4-trifluoromethoxy-benzenesulfonyl)-piperazine-2-carboxylic acid 4-isopropyl-benzylamide], the IC50 [1, 5] is reported as < 100 nM and the IC50 [2, 6] is reported as < 100 nM.
`CC(C)(C)c1ccc(CNC(=O)[C@H]2CN(c3nc4nc[nH]c(=O)c4s3)CCN2S(=O)(=O)c2ccc(OC(F)(F)F)cc2)cc1` [Example 602, (R)-4-(7-oxo-6,7-dihydro-thiazolo[4,5-d]pyrimidin-2-yl)-1-(4-trifluoromethoxy-benzenesulfonyl)-piperazine-2-carboxylic acid 4-tert-butyl-benzylamide] was tested, and the IC50 [1, 5] was < 100 nM and the IC50 [2, 6] was < 100 nM.
With `CCOC(=O)Cc1nnn(CC(=O)N2CCN(S(=O)(=O)c3ccc(C(F)(F)F)cc3)[C@@H](C(=O)NCc3ccc(C(C)C)cc3)C2)n1` [Example 309, (2-{2-[(R)-3-(4-isopropyl-benzylcarbamoyl)-4-(4-trifluoromethyl-benzenesulfonyl)-piperazin-1-yl]-2-oxo-ethyl}-2H-tetrazol-5-yl)-acetic acid ethyl ester] the IC50 [1, 5] was < 100 nM and the IC50 [2, 6] was < 100 nM.
For `CC(C)c1ccc(CNC(=O)[C@H]2CN(C(=O)Cn3ccnc3)CCN2S(=O)(=O)c2ccc(C(F)(F)F)cc2)cc1` [Example 219, (R)-4-(2-imidazol-1-yl-acetyl)-1-(4-trifluoromethyl-benzenesulfonyl)-piperazine-2-carboxylic acid 4-isopropyl-benzylamide], the IC50 [1, 5] was < 100 nM and the IC50 [2, 6] was < 100 nM.
For `O=C(NCc1ccc(OC(F)(F)F)cc1)[C@H]1CN(c2nc3nc(NCCO)ncc3s2)CCN1S(=O)(=O)c1ccc(OC(F)(F)F)cc1` [Example 946, (R)-4-[5-(2-hydroxy-ethylamino)-thiazolo[4,5-d]pyrimidin-2-yl]-1-(4-trifluoromethoxy-benzenesulfonyl)-piperazine-2-carboxylic acid 4-trifluoromethoxy-benzylamide], the IC50 [1, 3] was < 100 nM and the IC50 [2, 4] was < 100 nM.
`CCCc1ccc(CNC(=O)[C@H]2CN(c3cnc(N)cn3)CCN2S(=O)(=O)c2ccc(OC(F)(F)F)cc2)cc1` [Example 530, (R)-5′-amino-4-(4-trifluoromethoxy-benzenesulfonyl)-3,4,5,6-tetrahydro-2H-[1,2′]bipyrazinyl-3-carboxylic acid 4-propyl-benzylamide] was tested, and the IC50 [1, 5] was 100 to 1000 nM and the IC50 [2, 6] was < 100 nM.
In the case of `CCC(F)(F)c1ccc(CNC(=O)[C@H]2CN(C(=O)Cn3cnnn3)CCN2S(=O)(=O)c2ccc(OC(F)(F)F)cc2)cc1` [Example 464, (R)-4-(2-tetrazol-1-yl-acetyl)-1-(4-trifluoromethoxy-benzenesulfonyl)-piperazine-2-carboxylic acid 4-(1,1-difluoro-propyl)-benzylamide], the IC50 [1, 5] is reported as < 100 nM and the IC50 [2, 6] is reported as < 100 nM.
With `O=C(NCc1ccc(OC(F)(F)F)cc1)[C@H]1CN(c2nn3c(C(F)(F)F)nnc3s2)CCN1S(=O)(=O)c1ccc(OC(F)(F)F)cc1` [Example 951, (R)-1-(4-trifluoromethoxy-benzenesulfonyl)-4-(3-trifluoromethyl-[1,2,4]triazolo[3,4-b][1,3,4]thiadiazol-6-yl)-piperazine-2-carboxylic acid 4-trifluoromethoxy-benzylamide] the IC50 [1, 3] was < 100 nM and the IC50 [2, 4] was < 100 nM.
In the case of `CCCc1ccc(CNC(=O)[C@H]2CN(c3cnc4c(C(=O)O)cccc4n3)CCN2S(=O)(=O)c2ccc(CC)cc2)cc1` [Example 814, 2-[(R)-4-(4-ethyl-benzenesulfonyl)-3-(4-propyl-benzylcarbamoyl)-piperazin-1-yl]-quinoxaline-5-carboxylic acid], the IC50 [1, 3] is reported as < 100 nM and the IC50 [2, 4] is reported as < 100 nM.
`CCCc1ccc(CNC(=O)[C@H]2CN(c3ccc(C(=O)OC(C)(C)C)s3)CCN2S(=O)(=O)c2ccc(OC(F)(F)F)cc2)cc1` [Example 728, 5-[(R)-3-(4-propyl-benzylcarbamoyl)-4-(4-trifluoromethoxy-benzenesulfonyl)-piperazin-1-yl]-thiophene-2-carboxylic acid tert-butyl ester] was tested, and the IC50 [1, 3] was 100 to 1000 nM and the IC50 [2, 4] was 100 to 1000 nM.
